Laboratory results: patent US5817692A, “Endoperoxides useful as antiparasitic agents” (priority 1996, dated 1998)
Like-named read-outs stand apart in the source and are kept apart here.

Key:
[1] = system: Toxoplasma gondii; assay: inhibition of intracellular replication of T. gondii in infected L929 cells, uracil incorporation assay; assay type: cell-based; parameters: Activity, Mean: unit not given here; settings: for Activity, Mean: uracil incorporation; for inhibition at 0.1 µM / inhibition at 1 µM / inhibition at 10 µM / inhibition at 50 µM: Toxoplasma gondii, L929, read-out: Activity, % of control (inhibition)
Method: Toxoplasma gondii is the causative agent of cerebral toxoplasmic encephalitis, an AIDS-related opportunistic infection. The biological activity of the endoperoxide JHU 2886 of the present invention was measured against Toxoplasma gondii cultured in L929 cells. The inhibitory activity of the synthetic organic endoperoxide was tested by measuring the intracellular replication of T. gondii in infected L929 cells. The inhibition of the intracellular replication of T. gondii was determined using the uracil incorporation assay (20). […] This compound is referred to as JHU 2886 in Table 1. In this experiment atovaquone and artemisinin were used as positive controls. Atovaquone is a broad-spectrum anti-infective drug having antimalarial and antitoxoplasmosis activity (19). | measured using the MTT assay (Promega kit) and inhibition of the | intracellular replication of T. gondii was determined using the uracil | incorporation assay.

[2] = system: L929 cells; assay: cytotoxicity to L929 cells, MTT assay (viability and replication); assay type: cell-based; parameters: Toxicity, Mean: unit not given here; settings: for Toxicity, Score / Toxicity, Mean / inhibition at 0.1 µM / inhibition at 1 µM / inhibition at 10 µM / inhibition at 50 µM: L929 cells; for Toxicity, Mean: MTT; for inhibition at 0.1 µM / inhibition at 1 µM / inhibition at 10 µM / inhibition at 50 µM: Mus musculus, read-out: Toxicity, % of control (inhibition)
Method: Toxoplasma gondii is the causative agent of cerebral toxoplasmic encephalitis, an AIDS-related opportunistic infection. The biological activity of the endoperoxide JHU 2886 of the present invention was measured against Toxoplasma gondii cultured in L929 cells.
More specifically, the cytotoxicity of synthetic organic endoperoxide JHU 2886 was tested in L929 cells by measuring the viability and replication of exposed cells. The cytotoxicity of the compound to the cultured cells was measured using the MTT assay (Promega kit), according to the procedure of Carmichael et al. (18). MTT is an abbreviation for [3-(4,5-dimethylthiazol-2-yl)-2,5-dephenyltetrazolium bromide].
This compound is referred to as JHU 2886 in Table 1. In this experiment atovaquone and artemisinin were used as positive controls. Atovaquone is a broad-spectrum anti-infective drug having antimalarial and antitoxoplasmosis activity (19).
^1 The cytotoxicity of each compound for the cultured cells was
measured using the MTT assay (Promega kit) and inhibition of the […]

SMILES: O=C1C(O)=C([C@H]2CC[C@H](c3ccc(Cl)cc3)CC2)C(=O)c2ccccc21 [Atovaquone]
- therapeutic index (ratio of activity to toxicity), quotient ([1]; 1 μM, T. gondii activity / L929 toxicity): 5.6
- Activity, Score ([1]; 24 hours, dose 0.1 μM): 4 (>70%-≤90%)
- Activity, Mean ([1]; 24 hours, dose 0.1 μM): 3096
- Activity, Score ([1]; 24 hours, dose 1.0 μM): 5 (>90%)
- Activity, Mean ([1]; 24 hours, dose 1.0 μM): 693
- Activity, Score ([1]; 24 hours, dose 10.0 μM): 5 (>90%)
- Activity, Mean ([1]; 24 hours, dose 10.0 μM): 612
- Activity, Score ([1]; 24 hours, dose 50.0 μM): 5 (>90%)
- Activity, Mean ([1]; 24 hours, dose 50.0 μM): 1042
- Activity, Score ([1]; 48 hours, dose 0.1 μM): 3 (>40%-≤70%)
- Activity, Mean ([1]; 48 hours, dose 0.1 μM): 6865
- Activity, Score ([1]; 48 hours, dose 1.0 μM): 5 (>90%)
- Activity, Mean ([1]; 48 hours, dose 1.0 μM): 729
- Activity, Score ([1]; 48 hours, dose 10.0 μM): 5 (>90%)
- Activity, Mean ([1]; 48 hours, dose 10.0 μM): 399
- Activity, Score ([1]; 48 hours, dose 50.0 μM): 5 (>90%)
- Activity, Mean ([1]; 48 hours, dose 50.0 μM): 236
- Activity, Score ([1]; 72 hours, dose 0.1 μM): 3 (>40%-≤70%)
- Activity, Mean ([1]; 72 hours, dose 0.1 μM): 2940
- Activity, Score ([1]; 72 hours, dose 1.0 μM): 4 (>70%-≤90%)
- Activity, Mean ([1]; 72 hours, dose 1.0 μM): 1272
- Activity, Score ([1]; 72 hours, dose 10.0 μM): 5 (>90%)
- Activity, Mean ([1]; 72 hours, dose 10.0 μM): 446
- Activity, Score ([1]; 72 hours, dose 50.0 μM): 5 (>90%)
- Activity, Mean ([1]; 72 hours, dose 50.0 μM): 230
- inhibition at 0.1 µM ([1]; 24 hours, dose 0.1 μM): 78.4%
- inhibition at 1 µM ([1]; 24 hours, dose 1.0 μM): 95.2%
- inhibition at 10 µM ([1]; 24 hours, dose 10.0 μM): 95.7%
- inhibition at 50 µM ([1]; 24 hours, dose 50.0 μM): 92.7%
- inhibition at 0.1 µM ([1]; 48 hours, dose 0.1 μM): 60.1%
- inhibition at 1 µM ([1]; 48 hours, dose 1.0 μM): 95.8%
- inhibition at 10 µM ([1]; 48 hours, dose 10.0 μM): 97.7%
- inhibition at 50 µM ([1]; 48 hours, dose 50.0 μM): 98.6%
- inhibition at 10 µM ([1]; 72 hours, dose 10.0 μM): 93.8%
- inhibition at 50 µM ([1]; 72 hours, dose 50.0 μM): 96.8%
- Toxicity, Score ([2]; 24 hours, dose 0.1 μM): 1 (≤20%)
- Toxicity, Mean ([2]; 24 hours, dose 0.1 μM): 0.095
- Toxicity, Score ([2]; 24 hours, dose 1.0 μM): 1 (≤20%)
- Toxicity, Mean ([2]; 24 hours, dose 1.0 μM): 0.093
- Toxicity, Score ([2]; 24 hours, dose 10.0 μM): 1 (≤20%)
- Toxicity, Mean ([2]; 24 hours, dose 10.0 μM): 0.092
- Toxicity, Score ([2]; 24 hours, dose 50.0 μM): 2 (>20%-≤40%)
- Toxicity, Mean ([2]; 24 hours, dose 50.0 μM): 0.089
- Toxicity, Score ([2]; 48 hours, dose 0.1 μM): 0
- Toxicity, Mean ([2]; 48 hours, dose 0.1 μM): 0.214
- Toxicity, Score ([2]; 48 hours, dose 1.0 μM): 1 (≤20%)
- Toxicity, Mean ([2]; 48 hours, dose 1.0 μM): 0.211
- Toxicity, Score ([2]; 48 hours, dose 10.0 μM): 1 (≤20%)
- Toxicity, Mean ([2]; 48 hours, dose 10.0 μM): 0.204
- Toxicity, Score ([2]; 48 hours, dose 50.0 μM): 3 (>40%-≤70%)
- Toxicity, Mean ([2]; 48 hours, dose 50.0 μM): 0.106
- Toxicity, Score ([2]; 72 hours, dose 0.1 μM): 0
- Toxicity, Mean ([2]; 72 hours, dose 0.1 μM): 0.473
- Toxicity, Score ([2]; 72 hours, dose 1.0 μM): 0
- Toxicity, Mean ([2]; 72 hours, dose 1.0 μM): 0.464
- Toxicity, Score ([2]; 72 hours, dose 10.0 μM): 0
- Toxicity, Mean ([2]; 72 hours, dose 10.0 μM): 0.456
- Toxicity, Score ([2]; 72 hours, dose 50.0 μM): 3 (>40%-≤70%)
- Toxicity, Mean ([2]; 72 hours, dose 50.0 μM): 0.161
- inhibition at 0.1 µM ([2]; 24 hours, dose 0.1 μM): 15.6%
- inhibition at 1 µM ([2]; 24 hours, dose 1.0 μM): 17.4%
- inhibition at 10 µM ([2]; 24 hours, dose 10.0 μM): 18.3%
- inhibition at 50 µM ([2]; 24 hours, dose 50.0 μM): 21.2%
- inhibition at 0.1 µM ([2]; 48 hours, dose 0.1 μM): 0%
- inhibition at 1 µM ([2]; 48 hours, dose 1.0 μM): 1.09%
- inhibition at 10 µM ([2]; 48 hours, dose 10.0 μM): 4.53%
- inhibition at 50 µM ([2]; 48 hours, dose 50.0 μM): 50.2%
- inhibition at 0.1 µM ([2]; 72 hours, dose 0.1 μM): 0%
- inhibition at 1 µM ([2]; 72 hours, dose 1.0 μM): 0%
- inhibition at 10 µM ([2]; 72 hours, dose 10.0 μM): 0%
- inhibition at 50 µM ([2]; 72 hours, dose 50.0 μM): 63.2%

SMILES: c1ccc(C23CCCC(c4ccccc4)(CC2)OO3)cc1 [JHU 2886]
- antiparasitic activity, in words ([1]; 24 and 48 hours, all concentrations tested): significant antiparasitic activity
- Activity, Score ([1]; 24 hours, dose 0.1 μM): 2 (>20%-≤40%)
- Activity, Mean ([1]; 24 hours, dose 0.1 μM): 6079
- Activity, Score ([1]; 24 hours, dose 1.0 μM): 3 (>40%-≤70%)
- Activity, Mean ([1]; 24 hours, dose 1.0 μM): 2668
- Activity, Score ([1]; 24 hours, dose 10.0 μM): 4 (>70%-≤90%)
- Activity, Mean ([1]; 24 hours, dose 10.0 μM): 1967
- Activity, Score ([1]; 24 hours, dose 50.0 μM): 4 (>70%-≤90%)
- Activity, Mean ([1]; 24 hours, dose 50.0 μM): 2104
- Activity, Score ([1]; 48 hours, dose 0.1 μM): 1 (≤20%)
- Activity, Mean ([1]; 48 hours, dose 0.1 μM): 14841
- Activity, Score ([1]; 48 hours, dose 1.0 μM): 1 (≤20%)
- Activity, Mean ([1]; 48 hours, dose 1.0 μM): 12880
- Activity, Score ([1]; 48 hours, dose 10.0 μM): 4 (>70%-≤90%)
- Activity, Mean ([1]; 48 hours, dose 10.0 μM): 4428
- Activity, Score ([1]; 48 hours, dose 50.0 μM): 4 (>70%-≤90%)
- Activity, Mean ([1]; 48 hours, dose 50.0 μM): 1808
- antiparasitic activity, in words ([1]; 72 hours, 1 μM and above): significant activity
- Activity, Score ([1]; 72 hours, dose 0.1 μM): 1 (≤20%)
- Activity, Mean ([1]; 72 hours, dose 0.1 μM): 6934
- Activity, Score ([1]; 72 hours, dose 1.0 μM): 1 (≤20%)
- Activity, Mean ([1]; 72 hours, dose 1.0 μM): 6219
- Activity, Score ([1]; 72 hours, dose 10.0 μM): 4 (>70%-≤90%)
- Activity, Mean ([1]; 72 hours, dose 10.0 μM): 1321
- Activity, Score ([1]; 72 hours, dose 50.0 μM): 4 (>70%-≤90%)
- Activity, Mean ([1]; 72 hours, dose 50.0 μM): 1252
- inhibition at 1 µM ([1]; 24 hours, dose 1.0 μM): 69.6%
- inhibition at 10 µM ([1]; 24 hours, dose 10.0 μM): 77.6%
- inhibition at 50 µM ([1]; 24 hours, dose 50.0 μM): 76%
- inhibition at 0.1 µM ([1]; 48 hours, dose 0.1 μM): 6.18%
- inhibition at 1 µM ([1]; 48 hours, dose 1.0 μM): 18.6%
- inhibition at 10 µM ([1]; 48 hours, dose 10.0 μM): 72%
- inhibition at 50 µM ([1]; 48 hours, dose 50.0 μM): 88.6%
- inhibition at 0.1 µM ([1]; 72 hours, dose 0.1 μM): 3.24%
- inhibition at 1 µM ([1]; 72 hours, dose 1.0 μM): 13.2%
- inhibition at 10 µM ([1]; 72 hours, dose 10.0 μM): 81.6%
- inhibition at 50 µM ([1]; 72 hours, dose 50.0 μM): 82.5%
- toxicity in L929 cells, in words ([2]; 50 μM): some toxicity
- toxicity in L929 cells, in words ([2]; 24, 48 and 72 hours, concentrations as high as 10 μM): little toxicity
- Toxicity, Score ([2]; 24 hours, dose 0.1 μM): 1 (≤20%)
- Toxicity, Mean ([2]; 24 hours, dose 0.1 μM): 0.129
- Toxicity, Score ([2]; 24 hours, dose 1.0 μM): 0
- Toxicity, Mean ([2]; 24 hours, dose 1.0 μM): 0.133
- Toxicity, Score ([2]; 24 hours, dose 10.0 μM): 0
- Toxicity, Mean ([2]; 24 hours, dose 10.0 μM): 0.130
- Toxicity, Score ([2]; 24 hours, dose 50.0 μM): 2 (>20%-≤40%)
- Toxicity, Mean ([2]; 24 hours, dose 50.0 μM): 0.089
- Toxicity, Score ([2]; 48 hours, dose 0.1 μM): 0
- Toxicity, Mean ([2]; 48 hours, dose 0.1 μM): 0.227
- Toxicity, Score ([2]; 48 hours, dose 1.0 μM): 0
- Toxicity, Mean ([2]; 48 hours, dose 1.0 μM): 0.219
- Toxicity, Score ([2]; 48 hours, dose 10.0 μM): 0
- Toxicity, Mean ([2]; 48 hours, dose 10.0 μM): 0.217
- Toxicity, Score ([2]; 48 hours, dose 50.0 μM): 2 (>20%-≤40%)
- Toxicity, Mean ([2]; 48 hours, dose 50.0 μM): 0.147
- Toxicity, Score ([2]; 72 hours, dose 0.1 μM): 0
- Toxicity, Mean ([2]; 72 hours, dose 0.1 μM): 0.479
- Toxicity, Score ([2]; 72 hours, dose 1.0 μM): 0
- Toxicity, Mean ([2]; 72 hours, dose 1.0 μM): 0.460
- Toxicity, Score ([2]; 72 hours, dose 10.0 μM): 0
- Toxicity, Mean ([2]; 72 hours, dose 10.0 μM): 0.448
- Toxicity, Score ([2]; 72 hours, dose 50.0 μM): 2 (>20%-≤40%)
- Toxicity, Mean ([2]; 72 hours, dose 50.0 μM): 0.275
- inhibition at 0.1 µM ([2]; 24 hours, dose 0.1 μM): 0.26%
- inhibition at 1 µM ([2]; 24 hours, dose 1.0 μM): 0%
- inhibition at 10 µM ([2]; 24 hours, dose 10.0 μM): 0%
- inhibition at 50 µM ([2]; 24 hours, dose 50.0 μM): 31.2%
- inhibition at 0.1 µM ([2]; 48 hours, dose 0.1 μM): 0%
- inhibition at 1 µM ([2]; 48 hours, dose 1.0 μM): 0%
- inhibition at 10 µM ([2]; 48 hours, dose 10.0 μM): 0%
- inhibition at 50 µM ([2]; 48 hours, dose 50.0 μM): 30.4%
- inhibition at 0.1 µM ([2]; 72 hours, dose 0.1 μM): 0%
- inhibition at 1 µM ([2]; 72 hours, dose 1.0 μM): 0%
- inhibition at 10 µM ([2]; 72 hours, dose 10.0 μM): 0%
- inhibition at 50 µM ([2]; 72 hours, dose 50.0 μM): 37.4%
